According to patent US11180510B2, “Xanthine derivatives and uses thereof as inhibitors of bromodomains of BET proteins” (Centre national de la recherche scientifique, priority 2017, dated 2021):

Key:
Brd4(BD2) = target: T1, Brd4(BD2) (Homo sapiens, UniProt O60885); test: HTRF BET selectivity profile, Brd4(BD2); assay type: binding
T1 construct: GST tagged bromodomain proteins were purchased from BPS Bioscience; purchased BPS Bioscience
Method in brief: (§1)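 HTRF peptide-displacement assay with GST-tagged bromodomains and histone peptide, 0.5% final DMSO, incubated 3 h, 6 h or overnight at room temperature or 4 °C depending on bromodomain. 665/620 nm ratio read; inhibition scaled between DMSO and no-peptide controls, IC50 in triplicate.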

Molm14 cells = test: Cell Titer-Glo cell viability assay, Molm14; assay type: cell-based; details: Homo sapiens, MOLM-14, 72 h, mean of three experiments, NA = IC50 > maximal concentration used
Method in brief: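 Jurkat was grown in RPMI-1640 and Molm14 in MEMα, both with 10% FBS. Viability was read by CellTiter-Glo luminescence, and EC50 was obtained by non-linear regression of dose-response curves.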

BRD4(BD1) [1] = target: T2, BRD4(BD1) (Homo sapiens, UniProt O60885); test: BROMOscan assays; assay type: binding
BRD4(BD1) [2] = target: T2, BRD4(BD1); test: HTRF assay, BRD4(BD1)/histone peptide interaction; assay type: binding; set-up: made in house
Brdt(BD1) = target: T3, Brdt(BD1) (Homo sapiens, UniProt Q58F21); test: HTRF BET selectivity profile, Brdt(BD1); assay type: binding
T3 construct: GST tagged bromodomain proteins were purchased from BPS Bioscience; purchased BPS Bioscience
Method in brief: as §1

Brd3(BD1) = Brd3(BD1) (Homo sapiens, UniProt Q15059); test: HTRF BET selectivity profile, Brd3(BD1); assay type: binding; set-up: GST tagged bromodomain proteins were purchased from BPS Bioscience; purchased BPS Bioscience
Brd3(BD1), sequence (Q15059 34-140 limits assumed): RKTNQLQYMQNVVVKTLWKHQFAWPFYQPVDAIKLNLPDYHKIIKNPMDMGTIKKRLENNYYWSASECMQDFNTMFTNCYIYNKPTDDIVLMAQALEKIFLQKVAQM

c-Myc = c-Myc HTRF, CEM cell line; assay type: cell-based
Protocol: For additional evaluation of the effect of 43c in cell assays, an influence of the molecule on c-Myc expression was determined by c-Myc HTRF. c-Myc is a proto-oncogene that is often overexpressed in cancer. This leads to the increased expression of many genes, involved in cell proliferation, contributing to cancer development. Downregulation of c-Myc is considered as a promising approach for anticancer treatment.

Brd2(BD2) = target: T4, Brd2(BD2) (Homo sapiens, UniProt P25440); test: HTRF BET selectivity profile, Brd2(BD2); assay type: binding; details: read-out: Brd2(BD2) IC50
T4 construct: GST tagged bromodomain proteins were purchased from BPS Bioscience; purchased BPS Bioscience
T4 sequence (P25440 344-453 limits assumed): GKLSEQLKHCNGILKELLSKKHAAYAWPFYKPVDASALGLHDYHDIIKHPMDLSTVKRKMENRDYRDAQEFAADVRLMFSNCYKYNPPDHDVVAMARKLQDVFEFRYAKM

IC50 (Brd4(BD2)): 2310 nM | IC50 (Molm14 cells): 6100 nM | Kd (BRD4(BD1) [1]): 32 nM | selectivity ratio to the first bromodomain, BROMOscan (BRD4(BD1) [1]): up to 313 fold | IC50 (BRD4(BD1) [2]; HTRF, mean of three experiments, NA = IC50 > 50 μM, read-out: Brd4(8D1) IC50): 74 nM | Ratio 4-1 vs 4-2 (BRD4(BD1) [2]; selectivity Brd4(BD1) vs Brd4(BD2), HTRF IC50): 31 | IC50 (Brdt(BD1)): 352 nM | IC50 (Brd3(BD1)): 132 nM | Ratio 3-1 vs 3-2 (Brd3(BD1); selectivity Brd3(BD1) vs Brd3(BD2), HTRF IC50): 16 | IC50 (Brd2(BD2)): 1220 nM
SMILES: CCn1cnc2c1c(=O)[nH]c(=O)n2Cc1ccc(CNS(=O)(=O)c2ccc(OC3CCOCC3)c(F)c2)cc1 [Compound 43c]
concentration at which c-Myc is downregulated, CEM (c-Myc): 2.6 µM
